Our source for the TGI values is PubChem BioAssay (NCI).

The assay relates to P388 leukemia. The assay is described as follows: NCI tumour cell line growth inhibition, 48 h.

Molecules are shown by their SMILES.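 Tested at 5 concentrations; 48 h exposure; 96-well plates; endpoints linearly interpolated, else capped at highest concentration. TGI: concentration producing complete growth inhibition.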

With `Nc1nc(F)nc2c1ncn2C1OC(COP(=O)(O)O)C(O)C1O` (stereo unspecified), the TGI turned out to be 150 µM.
